“Also recorded” adds a separate entry of the source.
How the values were obtained:
[1] = phase II trial terminated; long term dosing studies; cited from earlier work
EEG spectral bands = experiment: Pharmaco-EEG spectral analysis in wirelessly implanted rats
sleep stages = experiment: Sleep-stage analysis in wirelessly implanted rats; conditions: Lorazepam 1 mg/kg IP
[2] = system: anxiety (elevated plus maze); experiment: Elevated plus maze (EPM); conditions: oral
[3] = Frontal-Parietal cortex, Quiet Wake

CCn1ncnc1COc1nn2c(-c3ccccc3F)nnc2cc1C(C)(C)C [7-(1,1-dimethylethyl)-6-(2-ethyl-2H-1,2,4-triazol-3-ylmethoxy)-3-(2-fluorophenyl)-1,2,4-triazolo[4,3-b]pyridazine]
toxicity [1]: terminated due to toxicity in long term dosing studies

O=C1Nc2ccc(Cl)cc2C(c2ccccc2Cl)=NC1O (centres unmarked) [Lorazepam, reference compound]
EEG spectral power change (EEG spectral bands; Frontal-Frontal cortex, Active and Quiet Wake): increased beta, low and high gamma | EEG spectral power change (EEG spectral bands; Frontal-Frontal cortex, NREM): decreased theta, alpha, and beta, but increased low gamma | duration of EEG effects (EEG spectral bands; Frontal-Frontal cortex, NREM, Compound 1 high dose PO, Lorazepam 1 mg/kg IP): 9 h | EEG spectral power change (EEG spectral bands; Frontal-Frontal cortex, REM): increased beta | duration of increase in low and high gamma (EEG spectral bands; Frontal-Parietal cortex, NREM): only lasting to two hours post dose | EEG spectral power change (EEG spectral bands; [3]): decreased theta, increased beta and low and high gamma | duration of EEG effects (EEG spectral bands; [3]): did not last past four hours post dose | EEG spectral power change (EEG spectral bands; Frontal-Parietal cortex, REM): increased theta, alpha, beta, and low gamma | EEG spectral power change (EEG spectral bands; summary, Quiet Wake): increased low & high gamma, decreased delta | NREM onset (sleep stages; Compound 1 1 mg/kg PO): decreased the latency to NREM onset; also recorded: quicker time to Non-REM onset sleep than Compound 1 | Active Wake (sleep stages; Compound 1 PO): decreased Active Wake | NREM (sleep stages; Compound 1 PO): increased NREM

chlordiazepoxide [reference compound]
effect compared with reference anxiolytic chlordiazepoxide [2]: equivalent

Reference: patent US20260345621A1, “GABAA RECEPTOR MODULATORS AND USES THEREOF” (Engrail Therapeutics, Inc., priority 2022, published 2026)
